These results are taken from patent publication US11130741B2 (Bioimics AB, priority 2016, dated 2021).

Assay [1] relates to E. coli RNase P RNA, M1 RNA. As to the kind of experiment: Inhibition of bacterial RNase P activity, IC50 determination (cleavage of pATSerUG by M1 RNA). As to conditions: NI = No inhibition. In kind it is biochemical.
For assay [2], the system named is Staphylococcus aureus (ATCC25923). The experiment in a line: MIC, broth microdilution (CLSI), Staphylococcus aureus ATCC25923. As to conditions: ATCC25923, read-out: S. aureus ("Clinical") MIC. On the technique in general: In broth dilution the organism is exposed to a series of concentrations in liquid medium.
Assay [3] has as its system Escherichia coli (ATCC25922). The experiment in a line: MIC, broth microdilution (CLSI), Escherichia coli ATCC25922. The note with it: ATCC25922, read-out: E. coli MIC, Table 15, NI = No inhibition.

In brackets after ≈: the same amount, converted by molar mass. A value given as a limit tells only on which side of the number the result lay.

On to `NCCCNC1CCCC(C(=O)Nc2cc(C(F)(F)F)cc3c2Nc2ccccc2S3)C1` (stereo not drawn) [compound 162, 3-((3-aminopropyl)amino)-N-(3-(trifluoromethyl)-10H-phenothiazin-1-yl)cyclohexane-carboxamide], for which the midpoint of inhibition in assay [1], the IC50, lay at 50 µM. Further, the MIC in assay [2] is 30 µg/mL (≈ 64.6 µM); in assay [3], above 100 µg/mL.
For `CN(C)CCCN1c2ccccc2Sc2cc(-c3cccc4cn[nH]c34)ccc21` [compound 129, 3-(3-(1H-indazol-7-yl)-10H-phenothiazin-10-yl)-N,N-dimethylpropan-1-amine] the same measures were above 100 µM, 6 µg/mL (≈ 15 µM) and above 100 µg/mL.
For `Nc1cc(C(F)(F)F)cc2c1N(CCCN1CCNCC1)c1ccccc1S2` [compound 83, 10-(3-(piperazin-1-yl)propyl)-3-(trifluoromethyl)-10H-phenothiazin-1-amine] the same measures were above 100 µM, 32 µg/mL (≈ 78.3 µM) and above 100 µg/mL.
The compound `FC(F)(F)c1cc(NCC2CCNCC2)c2c(c1)Sc1ccccc1N2` [compound 173, N-(piperidin-4-ylmethyl)-3-(trifluoromethyl)-10H-phenothiazin-1-amine] yielded an IC50 in assay [1] of 59 µM. Moreover, the MIC was 24 µg/mL (≈ 63.2 µM) in assay [2] and above 100 µg/mL in assay [3].
Compound `COc1cc(-c2ccc3c(c2)Sc2ccccc2N3CCCN(C)C)ccn1` [compound 153, 3-(3-(2-methoxypyridin-4-yl)-10H-phenothiazin-10-yl)-N,N-dimethylpropan-1-amine] yielded an IC50 in assay [1] above 100 µM. Besides, the MIC in assay [2] was 25 µg/mL (≈ 63.9 µM); in assay [3], above 100 µg/mL.
With `O=C(Nc1cc(C(F)(F)F)cc2c1Nc1ccccc1S2)C1CCNCC1` [compound 207, N-(3-(trifluoromethyl)-10H-phenothiazin-1-yl)piperidine-4-carboxamide], the IC50 in assay [1] was 109 µM. The figures for the MIC in assay [2] and in assay [3] were 25 µg/mL (≈ 63.5 µM) and 50 µg/mL (≈ 127 µM), respectively.
As to `NC1CCCC(c2nc3cc(C(F)(F)F)cc4c3n2-c2ccccc2S4)C1` (stereo not drawn) [compound 191, 3-(4-(trifluoromethyl)imidazo[4,5,1-kl]phenothiazin-1-yl)cyclohexan-amine], the IC50 in assay [1] is 19 µM. The figures for the MIC in assay [2] and in assay [3] were 6 µg/mL (≈ 15.4 µM) and 50 µg/mL (≈ 128 µM), respectively.
The compound `NC1CCCC(C(=O)Nc2cc(Cl)cc3c2Nc2ccccc2S3)C1` (stereo not drawn) [compound 161, 3-amino-N-(3-chloro-10H-phenothiazin-1-yl)cyclohexane-carboxamide] displayed an IC50 in assay [1] of 68 µM. Further, the MIC was determined as 24 µg/mL (≈ 64.2 µM) in assay [2] and 96 µg/mL (≈ 257 µM) in assay [3].
For `CN1CCN(CCCN2c3ccccc3Sc3cc(C(F)(F)F)cc(N)c32)CC1` [compound 88, 10-(3-(4-methylpiperazin-1-yl)propyl)-3-(trifluoromethyl)-10H-phenothiazin-1-amine] the same measures were above 100 µM, 27 µg/mL (≈ 63.9 µM) and above 100 µg/mL.
For `O=C(CCN1CCNCC1)Nc1cc(C(F)(F)F)cc2c1Nc1ccccc1S2` [compound 101, 3-(piperazin-1-yl)-N-(3-(trifluoromethyl)-10H-phenothiazin-1-yl)propanamide] the same measures were above 100 µM, 32 µg/mL (≈ 75.7 µM) and 64 µg/mL (≈ 151 µM).
On to `N[C@@H]1CCC[C@@H](CNc2cc(C(F)(F)F)cc3c2Nc2ccccc2S3)C1` [compound 171, N-(((1R,3R)-3-aminocyclohexyl)methyl)-3-(trifluoromethyl)-10H-phenothiazin-1-amine], for which it took 42 µM to reach half-maximal inhibition in assay [1] (IC50). The figures for the MIC in assay [2] and in assay [3] were 3 µg/mL (≈ 7.62 µM) and 13 µg/mL (≈ 33 µM), respectively.
With `N[C@H]1CCC[C@@H](CNc2cc(C(F)(F)F)cc3c2Nc2ccccc2S3)C1` [compound 182, N-(((1R,3S)-3-aminocyclohexyl)methyl)-3-(trifluoromethyl)-10H-phenothiazin-1-amine], inhibition in assay [1] was half-maximal at 61 µM (IC50). The MIC in assay [2] is 3 µg/mL (≈ 7.62 µM); in assay [3], 25 µg/mL (≈ 63.5 µM).
For `NC1CCCC(Nc2cc(C(F)(F)F)cc3c2Nc2ccccc2S3)C1` (stereo not drawn) [compound 204, N1-(3-(trifluoromethyl)-10H-phenothiazin-1-yl)cyclohexane-1,3-diamine] the same measures were 8 µM, 3 µg/mL (≈ 7.91 µM) and 12 µg/mL (≈ 31.6 µM).
In assay [1], `NC1CCC(CNc2cc(C(F)(F)F)cc3c2Nc2ccccc2S3)CC1` (stereo not drawn) [compound 108, N-((4-aminocyclohexyl)methyl)-3-(trifluoromethyl)-10H-phenothiazin-1-amine] showed an IC50 above 100 µM. Further, the MIC amounted to 8 µg/mL (≈ 20.3 µM) in assay [2] and 32 µg/mL (≈ 81.3 µM) in assay [3].
With `NC[C@H]1CC[C@H](C(=O)Nc2cc(C(F)(F)F)cc3c2Nc2ccccc2O3)CC1` [compound 160, (1r,4r)-4-(aminomethyl)-N-(3-(trifluoromethyl)-10H-phenoxazin-1-yl)cyclohexane-carboxamide], the IC50 in assay [1] amounted to 60 µM. Besides, the MIC in assay [2] turned out to be 26 µg/mL (≈ 64.1 µM); in assay [3], 52 µg/mL (≈ 128 µM).
`CN(C)CCCN1c2ccccc2Sc2cc(Cl)cc(N)c21` [compound 89, 3-chloro-10-(3-(dimethylamino)propyl)-10H-phenothiazin-1-amine] returned an IC50 in assay [1] above 100 µM. Also, the figures for the MIC in assay [2] and in assay [3] were 85 µg/mL (≈ 255 µM) and above 100 µg/mL, respectively.
For `CN1c2ccccc2Sc2cc(C(F)(F)F)cc(NC3CCN(CCN)CC3)c21` [compound 218, N-(1-(2-aminoethyl)piperidin-4-yl)-10-methyl-3-(trifluoromethyl)-10H-phenothiazin-1-amine] the same measures were 68 µM, 7 µg/mL (≈ 16.6 µM) and 7 µg/mL (≈ 16.6 µM).
On to `FC(F)(F)c1cc(NC2CCNCC2)c2c(c1)Sc1cc(Cl)ccc1N2` [compound 223, 7-chloro-N-(piperidin-4-yl)-3-(trifluoromethyl)-10H-phenothiazin-1-amine], for which the IC50 in assay [1] was 24 µM. In addition, the MIC worked out at 3 µg/mL (≈ 7.5 µM) in assay [2] and 6 µg/mL (≈ 15 µM) in assay [3].
In assay [1], `CN(C)CCCN1c2ccccc2Sc2cc(-c3cc4cc(O)ccc4[nH]3)ccc21` [compound 152, 2-(10-(3-(dimethylamino)propyl)-10H-phenothiazin-3-yl)-1H-indol-5-ol] yielded a half-maximal inhibitory concentration (IC50) above 100 µM. In addition, the MIC in assay [2] is 13 µg/mL (≈ 31.3 µM); in assay [3], above 100 µg/mL.
For `Clc1cc(NC2CCNCC2)c2c(c1)Sc1ccccc1N2` [compound 184, 3-chloro-N-(piperidin-4-yl)-10H-phenothiazin-1-amine] the same measures were 11 µM, 5 µg/mL (≈ 15.1 µM) and 21 µg/mL (≈ 63.3 µM).
In assay [1], `FC(F)(F)c1cc(NC2CCCNCC2)c2c(c1)Sc1ccccc1N2` (stereo not drawn) [compound 221, N-(azepan-4-yl)-3-(trifluoromethyl)-10H-phenothiazin-1-amine] yielded an IC50 above 100 µM. Moreover, the values for the minimal inhibitory concentration (MIC) in assay [2] and in assay [3] were 6 µg/mL (≈ 15.8 µM) and 24 µg/mL (≈ 63.2 µM), respectively.
Take `NCCN1CCC(Nc2cc3c(c(C(F)(F)F)c2)Nc2ccccc2S3)CC1` [compound 252, N-(1-(2-aminoethyl)piperidin-4-yl)-1-(trifluoromethyl)-10H-phenothiazin-3-amine]: the IC50 in assay [1] was 9 µM. Further, the MIC in assay [2] amounted to 7 µg/mL (≈ 17.1 µM); in assay [3], 26 µg/mL (≈ 63.6 µM).
`NCCCN1c2ccccc2Sc2cc(-c3cc4ccccc4n3CCN)ccc21.O=C(O)C(F)(F)F.O=C(O)C(F)(F)F` [compound 222, 3-(3-(1-(2-aminoethyl)-1H-indol-2-yl)-10H-phenothiazin-10-yl)propan-1-amine bis(2,2,2-trifluoroacetate) salt] yielded an IC50 in assay [1] of 18 µM. Further, the MIC came out at 3 µg/mL in assay [2] and 5 µg/mL in assay [3].
For `CNCCN1CCC(Nc2cc(CN)cc3c2Nc2ccccc2S3)CC1.O=C(O)C(F)(F)F` [compound 224, 3-(aminomethyl)-N-(1-(2-(methylamino)ethyl)piperidin-4-yl)-10H-phenothiazin-1-amine 2,2,2-trifluoroacetate salt], 68 µM corresponded to half-maximal inhibition in assay [1] (IC50). The MIC in assay [2] and in assay [3] was 64 µg/mL each time.
In assay [1], `N#Cc1cc(NC(=O)C2CCCC(N)C2)c2c(c1)Sc1ccccc1N2` (stereo not drawn) [compound 119, 3-amino-N-(3-cyano-10H-phenothiazin-1-yl)cyclohexane-carboxamide] had an IC50 above 100 µM. Moreover, the MIC in assay [2] is 93 µg/mL (≈ 255 µM); in assay [3] it was above 100 µg/mL.
For `FC(F)(F)c1cc(NC2CCNC2)c2c(c1)Sc1ccccc1N2` (stereo not drawn) [compound 174, N-(pyrrolidin-3-yl)-3-(trifluoromethyl)-10H-phenothiazin-1-amine] the same measures were 50 µM, 3 µg/mL (≈ 8.54 µM) and 11 µg/mL (≈ 31.3 µM).
As to `NCCN(CCN)CCN1CCC(Nc2cc(C(F)(F)F)cc3c2Nc2ccccc2S3)CC1.O=C(O)C(F)(F)F` [compound 216, N1-(2-aminoethyl)-N1-(2-(4-((3-(trifluoromethyl)-10H-phenothiazin-1-yl)amino)piperidin-1-yl)ethyl)ethane-1,2-diamine 2,2,2-trifluoroacetate salt], the IC50 in assay [1] was 5 µM. The MIC stood at 5 µg/mL in assay [2] and 19 µg/mL in assay [3].
Consider `NC1CCCC(C(=O)Nc2cc(C(F)(F)F)cc3c2Nc2ccccc2O3)C1` (stereo not drawn) [compound 156, 3-amino-N-(3-(trifluoromethyl)-10H-phenoxazin-1-yl)cyclohexane-carboxamide], for which, in assay [1], the IC50 is above 100 µM. The MIC was 13 µg/mL (≈ 33.2 µM) in assay [2] and 25 µg/mL (≈ 63.9 µM) in assay [3].
Compound `NC1CC(C(=O)Nc2cc(C(F)(F)F)cc3c2Nc2ccccc2S3)C1` (stereo not drawn) [compound 175, 3-amino-N-(3-(trifluoromethyl)-10H-phenothiazin-1-yl)cyclobutane-carboxamide] had an IC50 in assay [1] of 80 µM. Moreover, the MIC was 24 µg/mL (≈ 63.3 µM) in assay [2] and 49 µg/mL (≈ 129 µM) in assay [3].
For the compound `NC1CCC(C(=O)Nc2cc(C(F)(F)F)cc3c2Nc2ccccc2S3)CC1` (stereo not drawn) [compound 95, 4-amino-N-(3-(trifluoromethyl)-10H-phenothiazin-1-yl)cyclohexane-carboxamide], in assay [1], the IC50 is 94 µM. In addition, the MIC amounted to 32 µg/mL (≈ 78.5 µM) in assay [2] and 64 µg/mL (≈ 157 µM) in assay [3].

One may read the IC50 as the point on the concentration scale where inhibition reaches its midpoint. Low values mean higher potency, high ones lower potency. By MIC is commonly meant the least concentration at which growth counts as inhibited.
